Measured values reported in ChEMBL document CHEMBL5113486, “Hit-to-lead optimization of novel phenyl imidazole carboxamides that are active against Leishmania donovani” (Eur J Med Chem, 2022).
In brackets after ≈: the same amount, converted by molar mass.

Columns and labels:
[1] = Cytotoxicity against human HepG2 cells assessed as cell growth inhibition at 100 uM; type: toxicity, cell-based; details: read-out: Activity
[2] = Kinetic solubility of the compound at pH 6.5 by nephelometry; type: physicochemical; details: buffer, read-out: Kinetic_solubility
[3] = Selectivity index, ratio of CC50 for cytotoxicity against human THP-1 cells to IC50 for antileishmanial activity against Leishmania donovani infected in human THP-1 cells; type: toxicity, cell-based; details: read-out: Ratio CC50/IC50
[4] = Metabolic stability in mouse liver microsomes assessed as intrinsic clearance measured per mg protein; type: ADME, Microsome; details: read-out: CLH
[5] = Cytotoxicity against human THP-1 cells assessed as cell growth inhibition; type: toxicity, cell-based
[6] = Metabolic stability in human liver microsomes assessed as half-life; type: ADME, Microsome
[7] = Metabolic stability in human liver microsomes assessed as intrinsic clearance measured per mg protein; type: ADME, Microsome; details: read-out: CLH
[8] = Cytotoxicity against human HepG2 cells assessed as cell growth inhibition; type: toxicity, cell-based
[9] = Kinetic solubility of the compound at pH 2.0 by nephelometry; type: physicochemical; details: buffer, read-out: Kinetic_solubility
[10] = system: Leishmania donovani; test: Antileishmanial activity against Leishmania donovani axenic amastigotes assessed as growth inhibition by fluorescence intensity readout assay; type: functional, organism-based
[11] = Metabolic stability in mouse liver microsomes assessed as half life; type: ADME, Microsome
[12] = Lipophilicity, log P of the compound; type: physicochemical; details: octanol/water
[13] = system: Leishmania donovani; test: Antileishmanial activity against Leishmania donovani infected in human THP-1 cells assessed as growth inhibition at 100 uM by intramacrophage assay; type: functional; design: scale not given: the % may be the effect or the level left
[14] = system: Leishmania donovani; test: Antileishmanial activity against Leishmania donovani infected in human THP-1 cells assessed as growth inhibition by intramacrophage assay; type: functional, organism-based
[15] = Solubility of the compound in DMSO; type: physicochemical
[16] = system: HepG2; test: Cytotoxicity against human HepG2 cells assessed as inhibition of cell growth under galactose containing medium by crabtree effect assay; type: toxicity, cell-based
[17] = Drug degradation in human liver microsomes; type: ADME, Microsome; details: read-out: Drug degradation
[18] = system: HepG2; test: Mitotoxicity in human HepG2 cells assessed as reduction in metabolic activity under glucose containing medium by crabtree effect assay; type: toxicity, cell-based
[19] = system: HepG2; test: Mitotoxicity in human HepG2 cells assessed as reduction in metabolic activity under galactose containing medium by crabtree effect assay; type: toxicity, cell-based
[20] = (§1) Cytotoxicity against human HepG2 cells assessed as inhibition of cell growth under glucose containing medium by crabtree effect assay; type: toxicity, cell-based; details: HepG2 cells
[21] = Metabolic stability in mouse liver microsomes assessed as intrinsic clearance measured per mg protein at 2 to 5 mins; type: ADME, Microsome; details: time 2-5 min, read-out: CLH
[22] = Metabolic stability in mouse liver microsomes assessed as half life measured at 2 to 5 mins; type: ADME, Microsome; details: time 2-5 min
[23] = Solubility of the compound upto 800 uM; type: physicochemical
[24] = Stability in mouse liver microsomes assessed as parent compound remaining measured at 2 mins; type: ADME, Microsome
[25] = system: HepG2; test: as §1; type: toxicity, cell-based; details: hepg2

COc1ccc(-c2cnc(NC(=O)c3ccc(F)cc3)n2C)cc1
inhibition at 100 µM [1]: < 50%
solubility kinetic [2]: < 1.6 µg/mL
selectivity ratio [3]: > 8.3
microsomal CLint [4]: 396 µL/min/mg
CC50 [5]: ≥ 50 µM
half-life [6]: 59 min
microsomal CLint [7]: 30 µL/min/mg
CC50 [8]: 100 µM
solubility kinetic [9]: 12.5 µg/mL (≈ 38.4 µM)
IC50 [10]: 3.2 µM
half-life [11]: 4 min
logP [12]: 3.6

COc1ccc(-c2cnc(NC(=O)c3cc(-c4ccccn4)n[nH]3)n2C)cc1
inhibition at 100 µM [1]: < 50%
selectivity ratio [3]: > 19
CC50 [5]: ≥ 50 µM
CC50 [8]: 100 µM
IC50 [10]: 4 µM
logP [12]: 3.2

COc1ccc(-c2cnc(NC(=O)C3CCNCC3)n2C)cc1
inhibition at 100 µM [1]: < 50%
Activity [13]: <50%
selectivity ratio [3]: > 1
CC50 [5]: > 100 µM
IC50 [14]: > 100 µM

COc1ccc(-c2cnc(NC(=O)C3CCCCC3)n2C)cc1
inhibition at 100 µM [1]: < 50%
Activity [13]: <50%
selectivity ratio [3]: > 1
CC50 [5]: > 100 µM
IC50 [14]: > 100 µM
solubility [15]: Insoluble

Cn1c(-c2cccc(Cl)c2)cnc1NC(=O)c1ncc[nH]1
Activity [16]: Non-Toxic
solubility kinetic [2]: 3.1 µg/mL (≈ 10.3 µM)
selectivity ratio [3]: 74
microsomal CLint [4]: 21 µL/min/mg
CC50 [5]: 55 µM
half-life [6]: 229 min
metabolised [17]: < 15%
Activity [18]: Non-Toxic
microsomal CLint [7]: 8 µL/min/mg
IC50 [14]: 0.74 µM
Activity [19]: Non-Toxic
solubility kinetic [9]: 12.5 µg/mL (≈ 41.4 µM)
half-life [11]: 82 min
CC50 [20]: 17 µM

COc1ccc(-c2cnc(NC(=O)c3ccn[nH]3)n2C)cc1
inhibition at 100 µM [1]: < 50%
Activity [13]: <50%
selectivity ratio [3]: > 1
CC50 [5]: > 100 µM
IC50 [14]: > 100 µM

COc1ccc(-c2cnc(NC(=O)c3ccccc3)n2C)cc1
inhibition at 100 µM [1]: < 50%
selectivity ratio [3]: > 3.6
CC50 [5]: > 100 µM
IC50 [14]: 28 µM
solubility [15]: Insoluble

O=C(Nc1ncc(-c2ccccc2)o1)c1ccc(F)cc1
solubility kinetic [2]: 6.3 µg/mL (≈ 22.3 µM)
selectivity ratio [3]: 15
microsomal CLint [21]: 352 µL/min/mg
CC50 [5]: 17 µM
half-life [6]: 19 min
microsomal CLint [7]: 90 µL/min/mg
IC50 [14]: 1.1 µM
half-life [22]: 5 min
solubility kinetic [9]: 25 µg/mL (≈ 88.6 µM)

COc1ccc(-c2cnc3nc(-c4ccc(F)cc4)[nH]c3c2)cc1
inhibition at 100 µM [1]: < 50%
Activity [13]: <50%
selectivity ratio [3]: > 1
CC50 [5]: > 100 µM
solubility [23]: Insoluble
IC50 [14]: > 100 µM

COc1ccc(-c2cnc(NC(=O)c3ccc([N+](=O)[O-])cc3)n2C)cc1
inhibition at 100 µM [1]: < 50%
Activity [13]: <50%
selectivity ratio [3]: > 1
CC50 [5]: > 100 µM
IC50 [14]: > 100 µM

Cn1c(-c2ccccc2)cnc1NC(=O)c1ncc[nH]1
inhibition at 100 µM [1]: < 50%
selectivity ratio [3]: > 16
microsomal CLint [4]: > 866 µL/min/mg
CC50 [5]: > 100 µM
half-life [6]: 88 min
microsomal CLint [7]: 20 µL/min/mg
IC50 [14]: 6.4 µM
half-life [11]: < 2 min
Stability [24]: Unstable

Cn1c(-c2ccccc2F)cnc1NC(=O)c1ccc(F)cc1
inhibition at 100 µM [1]: < 50%
Activity [13]: <50%
selectivity ratio [3]: > 1
CC50 [5]: > 100 µM
IC50 [14]: > 100 µM

COc1ccc(-c2cnc(NC(=O)c3ccc(C#N)cc3)n2C)cc1
inhibition at 100 µM [1]: < 50%
Activity [13]: <50%
selectivity ratio [3]: > 1
CC50 [5]: > 100 µM
IC50 [14]: > 100 µM

Cn1c(-c2ccccc2)cnc1NC(=O)c1ccc(F)cc1
inhibition at 100 µM [1]: < 50%
solubility kinetic [2]: 25 µg/mL (≈ 84.7 µM)
selectivity ratio [3]: > 2.8
CC50 [5]: > 100 µM
IC50 [14]: 36 µM
solubility kinetic [9]: 25 µg/mL (≈ 84.7 µM)

Cn1c(-c2ccc(F)cc2)cnc1NC(=O)c1ccc(F)cc1
inhibition at 100 µM [1]: < 50%
Activity [13]: <50%
selectivity ratio [3]: > 1
CC50 [5]: > 100 µM
IC50 [14]: > 100 µM

COc1ccc(-c2nc3ncc(-c4ccc(F)cc4)cc3[nH]2)cc1
inhibition at 100 µM [1]: < 50%
Activity [13]: <50%
selectivity ratio [3]: > 1
CC50 [5]: > 100 µM
solubility [23]: Insoluble
IC50 [14]: > 100 µM

Cn1c(-c2ccc(Cl)cc2)cnc1NC(=O)c1ncc[nH]1
Activity [16]: Non-Toxic
solubility kinetic [2]: 25 µg/mL (≈ 82.9 µM)
selectivity ratio [3]: 100
microsomal CLint [4]: 41 µL/min/mg
CC50 [5]: 52 µM
half-life [6]: > 255 min
metabolised [17]: < 15%
Activity [18]: Non-Toxic
microsomal CLint [7]: < 7 µL/min/mg
IC50 [14]: 0.52 µM
Activity [19]: Non-Toxic
solubility kinetic [9]: 50 µg/mL (≈ 166 µM)
half-life [11]: 43 min
Activity [25]: Non-Toxic

COc1ccc(-c2cnc(NC(=O)c3ncc[nH]3)n2C)cc1
inhibition at 100 µM [1]: < 50%
Activity [13]: <50%
solubility kinetic [2]: 6.3 µg/mL (≈ 21.2 µM)
selectivity ratio [3]: > 9.1
microsomal CLint [4]: 511 µL/min/mg
CC50 [5]: > 100 µM
half-life [6]: > 255 min
metabolised [17]: < 15%
microsomal CLint [7]: < 7 µL/min/mg
IC50 [14]: 11 µM
solubility kinetic [9]: > 100 µg/mL
half-life [11]: 3 min

COc1ccc(-c2cnc(NC(=O)c3cccc(C#N)c3)n2C)cc1
inhibition at 100 µM [1]: < 50%
Activity [13]: <50%
selectivity ratio [3]: > 1
CC50 [5]: > 100 µM
IC50 [14]: > 100 µM

COc1ccc(-c2cnc(NC(=O)c3cccc(C)c3)n2C)cc1
inhibition at 100 µM [1]: < 50%
selectivity ratio [3]: > 1
CC50 [5]: > 100 µM
IC50 [14]: > 100 µM
solubility [15]: Insoluble

COc1ccc(-c2cnc(NC(C)=O)n2C)cc1
inhibition at 100 µM [1]: < 50%
Activity [13]: <50%
selectivity ratio [3]: > 1
CC50 [5]: > 100 µM
IC50 [14]: > 100 µM

CCCCn1c(-c2ccc(OC)cc2)cnc1NC(=O)c1ccc(F)cc1
inhibition at 100 µM [1]: < 50%
Activity [13]: <50%
selectivity ratio [3]: > 5.6
CC50 [5]: > 100 µM
IC50 [14]: > 100 µM

COc1ccc(-c2noc(NC(=O)c3ccc(F)cc3)c2C)cc1
inhibition at 100 µM [1]: < 50%
Activity [13]: <50%
selectivity ratio [3]: > 1
CC50 [5]: > 100 µM
IC50 [14]: > 100 µM

COc1ccc(-c2ccc(NC(=O)c3ccc(F)cc3)nc2)cc1
inhibition at 100 µM [1]: < 50%
Activity [13]: <50%
selectivity ratio [3]: > 1
CC50 [5]: > 100 µM
IC50 [14]: > 100 µM
solubility [15]: Insoluble

CCCC(=O)Nc1ncc(-c2ccc(OC)cc2)n1C
inhibition at 100 µM [1]: < 50%
Activity [13]: <50%
selectivity ratio [3]: > 1
CC50 [5]: > 100 µM
IC50 [14]: > 100 µM

COc1ccc(-c2cnc(NC(=O)c3cnco3)n2C)cc1
inhibition at 100 µM [1]: < 50%
Activity [13]: <50%
selectivity ratio [3]: > 1
CC50 [5]: > 100 µM
IC50 [14]: > 100 µM

COc1ccc(-c2cnc(NC(=O)c3ccccc3F)n2C)cc1
inhibition at 100 µM [1]: < 50%
Activity [13]: <50%
selectivity ratio [3]: > 1
CC50 [5]: > 100 µM
IC50 [14]: > 100 µM

COc1ccc(-c2cnc(NC(=O)c3cnc[nH]3)n2C)cc1
inhibition at 100 µM [1]: < 50%
Activity [13]: <50%
selectivity ratio [3]: > 1
CC50 [5]: > 100 µM
IC50 [14]: > 100 µM
